Measurements taken from paper PMC7790557, “Pleiotropic Properties of Amphiphilic Dihydropyridines, Dihydropyridones, and Aminovinylcarbonyl Compounds” (Oxidative Medicine and Cellular Longevity, 2020).
Like-named read-outs stand apart in the source and are kept apart here.

Assays:
[1] = test system: HT-1080 (human lung fibrosarcoma); test: Cytotoxicity, MTT assay, HT-1080; assay type: cell-based; details: Homo sapiens, read-out: HT-1080 IC50 (MTT)
Description: (§1) Reduction takes place only when mitochondrial reductase enzymes are active, and therefore, conversion is directly related to the number of viable cells which can be quantified by the absorbance of the solution (between λ = 500 and 600 nm) using a spectrophotometer.

MH-22A (mouse hepatoma) [2] = test: Cytotoxicity, MTT assay, MH-22A; assay type: cell-based; details: Mus musculus, read-out: MH-22A IC50 (MTT)
Description: as §1

NIH3T3 = test: in vitro; details: for LD50 (calculated, NIH3T3): mouse
Description: (§2) Data from the in vitro tests were used for estimating the starting dose for acute oral systemic toxicity tests in the rodent. The in vivo starting dose is an estimated LD50 value calculated by inserting the in vitroIC50 value into a regression formula: log LD50 (mM/kg) = 0.439 log IC50 (mM) + 0.621 [23–25]. […] Using an alternative in vitro method allows the comparison between possibly toxic new compounds and selecting compounds for further study vastly reducing the number of animal experiments.
(§3) Additionally, the compound influence on “normal” mouse fibroblasts (NIH3T3) was estimated for the studies of structure-activity relationships and exploration of the effect of substituents.

[3] = test system: NIH3T3 (mouse embryonic fibroblast); test: Basal cytotoxicity test, Neutral Red Uptake (NRU) assay; details: for IC50: Mus musculus
Procedure: The NRU cytotoxicity assay procedure is based on the ability of viable cells to incorporate and bind neutral red, a supravital dye.
Balb/c NIH 3T3 (mouse Swiss albino embryo fibroblast, ATCC® CRL-1658™) cells (9000 cells/well) were placed into 96-well plates for 24 h in Dulbecco's modified Eagle's medium (DMEM) containing 5% fetal bovine serum. Then, the cells were exposed to the test compound over a range of seven concentrations (1000, 316, 100, 31, 10, 3, and 1 μg/ml) for 24 h. Untreated cells were used as a control. After 24 h, the medium was removed from all plates. Then, 150 μl of neutral red solution was added (0.05 mg/ml NR in DMEM 24 h preincubated at 37°C and then filtered before use through a 0.22 μm syringe filter). Plates were incubated for 3 h, and then, the cells were washed three times with PBS. The dye within viable cells was released by extraction with a mixture of acetic acid, ethanol, and water (1 : 50 : 49). The absorbance of neutral red was measured using a spectrophotometer multiplate reader (Tecan Infinite M1000) at 540 nm. The optical density (OD) was calculated using the following formula: OD (treated cells) × 100/OD (control cells). The IC50 values were calculated using the GraphPad Prism® 3.0 program.

[4] = test system: HT-1080 (human lung fibrosarcoma); test: Cytotoxicity, crystal violet (CV) assay, HT-1080; details: Homo sapiens, HT-1080, 72 h, read-out: HT-1080 IC50 (CV)
Procedure: (§5) IC50 is the compound concentration (μg/ml) at which 50% of the cells die. […] CV staining can be used to quantify the total DNA of the remaining population and thus is used to determine the number of live cells based on the concentration of the dye which remains after staining.
(§6) Tumor cell lines HT-1080 (human connective tissue fibrosarcoma, ATCC® CCL-121™) and MH-22A (mouse hepatocarcinoma, ECACC, cat. Nr. 96121721) were used.
(§7) HT-1080 and MH-22A cells were seeded in 96-well plates in Dulbecco's modified Eagle's (DMEM) medium containing 10% fetal bovine serum and 4 mM L-glutamine, without antibiotics, and cultivated for 72 h by exposure to different concentrations of compounds. Cell viability was measured using 3-(4,5-dimethylthiazol-2-yl)-2,5-diphenyltetrazolinium bromide (MTT). In brief, after incubating with compounds, the culture medium was removed and fresh medium with 0.2 mg/ml MTT was added in each well of the plate. After incubation (3 h, 37°C, 5% CO2), the medium with MTT was removed, and 200 μl DMSO was added at once to each sample. The samples were tested at 540 nm on a Tecan Infinite M1000 multiplate reader. The IC50 was calculated using the program GraphPad Prism® 3.0.
(§8) For the CV assay, cells were stained with 0.05% crystal violet (Sigma-Aldrich) in 30% methanol for 20 minutes at room temperature. After incubation, the staining solution was removed. The cells were washed 4 times with water. For dye solubilization, 200 μl of a solubilizing solution (0.1 M citrate buffer, pH 4.2 in 50% ethanol; 1 : 1 v/v) was added. The absorbance of the solution was measured using a Tecan Infinite M1000 multiplate spectrophotometer at a wavelength of 570 nm [21].

MH-22A (mouse hepatoma) [5] = test: Cytotoxicity, crystal violet (CV) assay, MH-22A; assay type: cell-based; details: Mus musculus, read-out: MH-22A IC50 (CV)
Procedure: (§4) After incubation, the staining solution was removed. The cells were washed 4 times with water.

[6] = Cytotoxicity, crystal violet (CV) assay, HT-1080; details: human, HT-1080 cells (fibrosarcoma)
Procedure: as §5, §6, §7, §8

in vitro [7] = assay type: cell-based; details: human and mouse; summarises both cell lines, CV and MTT; read-out: cytotoxicity on cancer cell lines HT-1080 and MH-22A
Procedure: as §4

[8] = Electrochemical oxidation potentials, cyclic voltammetry; assay type: physicochemical; details: glassy carbon electrode, dry acetonitrile; for Oxidation potential E^ox: Table 4, vs Ag/Ag+, 0.1 M TBABF4, tested as perchlorates; for electrooxidation potential: cyclic voltammetry
Procedure: A stationary glassy carbon disk electrode (d = 0.5 mm) served as the working electrode, while the counterelectrode was a Pt wire. The oxidation potentials were measured relative to a Ag/Ag^+ reference electrode. Acetonitrile was dried over P2O5 and distilled; the distillate was stored over CaH2 and redistilled just before use. Recrystallized tetrabutylammonium tetrafluoroborate (TBABF4) was used as a supporting electrolyte at 0.1 M concentration.
The electrochemical oxidation of the selected compounds studied in this work was performed by cyclic voltammetry on a stationary glassy carbon electrode in dry acetonitrile; the data is presented in Table 4. The perchlorates of the tested amphiphiles were obtained from the corresponding bromides by treating their abs. MeOH solutions with excess of conc. HClO4 according to the procedure elaborated by Turovska et al..

in vitro [9] = details: mouse, NIH3T3 LD50, Table 3; calculated from NIH3T3 IC50 by regression formula
Description: as §2, §3

[10] = HT-1080, Table 1, 72 h exposure
[11] = NIH3T3, 24 h, read-out: NIH3T3 IC50 (NR)
[12] = NIH3T3, 24 h, read-out: NIH3T3 IC50 (NR), Table 1, 24 h exposure
[13] = HT-1080, Table 3, 72 h exposure
[14] = NIH3T3, 24 h, read-out: NIH3T3 IC50 (NR), Table 3, 24 h exposure

With `CCCOCOC(=O)C1=C(C[n+]2ccccc2)NC(C[n+]2ccccc2)=C(C(=O)OCOCCC)C1c1ccccc1OC(F)F.[Br-].[Br-]` [compound 7, 1,1'-((4-(2-(Difluoromethoxy)phenyl)-3,5-bis((propoxymethoxy)carbonyl)-1,4-dihydropyridine-2,6-diyl)bis(methylene))bis(pyridin-1-ium) dibromide] the IC50 [1, 10] was > 100 µg/mL, the IC50 (MH-22A (mouse hepatoma) [2]; Table 1, 72 h exposure) was > 100 µg/mL and the “LD50 (calculated, NIH3T3)” value (NIH3T3) was > 2000 mg/kg. For the same compound, the IC50 [3, 11] was > 1000 µg/mL, the IC50 [4] was > 100 µg/mL and the IC50 (MH-22A (mouse hepatoma) [5]; Table 1, 72 h exposure) was > 100 µg/mL.
For `CCOC(=O)C1=C(C[n+]2ccccc2)NC(C[n+]2ccccc2)=C(C(=O)OCC)C1C(=O)OC.[Br-].[Br-]` [compound 8, 1,1'-((3,5-Bis(ethoxycarbonyl)-4-(methoxycarbonyl)-1,4-dihydropyridine-2,6-diyl)-bis(methylene))bis(pyridin-1-ium) dibromide], the IC50 [1, 10] was > 100 µg/mL, the IC50 (MH-22A (mouse hepatoma) [2]; Table 1, 72 h exposure) was > 100 µg/mL and the “LD50 (calculated, NIH3T3)” value (NIH3T3) was > 2000 mg/kg. The IC50 [3, 11] was > 1000 µg/mL, the IC50 [4] was > 100 µg/mL and the IC50 (MH-22A (mouse hepatoma) [5]; Table 1, 72 h exposure) was > 100 µg/mL.
`CCCCCCCCCCCCOC(=O)C1=C(C[n+]2ccccc2)NC(C[n+]2ccccc2)=C(C(=O)OCCCCCCCCCCCC)C1c1ccccc1` [compound 11, 1,1'-((3,5-Bis((dodecyloxy)carbonyl)-4-phenyl-1,4-dihydropyridine-2,6-diyl)bis(methylene))bis(pyridin-1-ium) ditetrafluoroborate] gave an IC50 [1, 10] of 28 ± 9 µg/mL, an IC50 (MH-22A (mouse hepatoma) [2]; Table 1, 72 h exposure) of 30 ± 9 µg/mL and an IC50 [3, 12] of 47 ± 8 µg/mL. The IC50 at 72 h [6] was ~30 µg/mL, the IC50 [4] was 31 ± 4 µg/mL and the IC50 (MH-22A (mouse hepatoma) [5]; Table 1, 72 h exposure) was 30 ± 6 µg/mL.
For `CCCCCCCCCCCCOC(=O)C1=C(C[N+](C)(C)C2CCCCC2)NC(C[N+](C)(C)C2CCCCC2)=C(C(=O)OCCCCCCCCCCCC)C1c1ccccc1.[O-][Cl+3]([O-])([O-])[O-].[O-][Cl+3]([O-])([O-])[O-]` [compound 17, N,N'-((3,5-Bis((dodecyloxy)carbonyl)-4-phenyl-1,4-dihydropyridine-2,6-diyl)bis(methylene))bis(N,N-dimethylcyclohexanaminium) diperchlorate], the IC50 [1, 10] was 23 ± 3 µg/mL, the IC50 (MH-22A (mouse hepatoma) [2]; Table 1, 72 h exposure) was 35 ± 9 µg/mL and the IC50 [3, 12] was 59 ± 12 µg/mL. For the same compound, the IC50 [4] was 35 ± 9 µg/mL, the IC50 (in vitro [7]) was 23 to 54 µg/mL and the IC50 (MH-22A (mouse hepatoma) [5]; Table 1, 72 h exposure) was 54 ± 16 µg/mL.
In the case of `CCCCCCCCCCCCOC(=O)C1=C(C[n+]2ccccc2)NC(C[n+]2ccccc2)=C(C(=O)OCCCCC(F)(F)C(F)(F)C(F)(F)C(F)(F)C(F)(F)C(F)(F)C(F)(F)C(F)(F)F)C1c1ccccc1` (stereo not drawn) [compound 23, Dodecyl 5,5,6,6,7,7,8,8,9,9,10,10,11,11,12,12,12-heptadecafluorododecyl 1,4-dihydro-2,6-dimethyl-4-phenylpyridine-3,5-dicarboxylate-2,6-dipyridinium dibromide], the IC50 [1, 10] is reported as 47 ± 8 µg/mL, the IC50 (MH-22A (mouse hepatoma) [2]; Table 1, 72 h exposure) is reported as 75 ± 11 µg/mL and the “Oxidation potential E^ox” value [8] is reported as 1.70 V. For the same compound, the electrooxidation potential [8] was 1.69–1.70 V, the IC50 [3, 12] was 477 ± 25 µg/mL and the IC50 [4] was 50 ± 6 µg/mL. For the same compound, the IC50 (in vitro [7]) was 47 to 75 µg/mL and the IC50 (MH-22A (mouse hepatoma) [5]; Table 1, 72 h exposure) was 47 ± 2 µg/mL.
With `O=C(OCCCCC(F)(F)C(F)(F)C(F)(F)C(F)(F)C(F)(F)C(F)(F)C(F)(F)C(F)(F)F)C1=C(C[n+]2ccccc2)NC(C[n+]2ccccc2)=C(C(=O)OCCCCC(F)(F)C(F)(F)C(F)(F)C(F)(F)C(F)(F)C(F)(F)C(F)(F)C(F)(F)F)C1c1ccccc1` [compound 24, Bis(5,5,6,6,7,7,8,8,9,9,10,10,11,11,12,12,12-heptadecafluorododecyl) 1,4-dihydro-2,6-dimethyl-4-phenylpyridine-3,5-dicarboxylate-2,6-dipyridinium bromide] the IC50 [1, 10] was 100 ± 9 µg/mL, the IC50 (MH-22A (mouse hepatoma) [2]; Table 1, 72 h exposure) was > 100 µg/mL and the “Oxidation potential E^ox” value [8] was 1.69 V. For the same compound, the electrooxidation potential [8] was 1.69–1.70 V, the IC50 [3, 12] was > 1000 µg/mL and the IC50 [4] was 100 ± 11 µg/mL. The IC50 (in vitro [7]) was ~100 µg/mL and the IC50 (MH-22A (mouse hepatoma) [5]; Table 1, 72 h exposure) was > 100 µg/mL.
Work on `CCCCCCCCCCCCOC(=O)C1=C(C[n+]2ccccc2)NC(C[n+]2ccccc2)=C(C(=O)OCCCCCCCCCCCC)C1c1ccc(C2C(C(=O)OCCCCCCCCCCCC)=C(C[n+]3ccccc3)NC(C[n+]3ccccc3)=C2C(=O)OCCCCCCCCCCCC)cc1.[Br-].[Br-].[Br-].[Br-]` [compound 26, 1,1',1'',1'''-((1,4-Phenylenebis(3,5-bis((dodecyloxy)carbonyl)-1,4-dihydropyridine-4,2,6-triyl))tetrakis(methylene))tetrakis(pyridin-1-ium) tetrabromide] yielded an IC50 ([1]; HT-1080, 72 h) of 14 ± 2 µg/mL, an IC50 (MH-22A (mouse hepatoma) [2]; 72 h) of 21 ± 4 µg/mL and an IC50 [3, 11] of 717 ± 56 µg/mL. It also gave an IC50 [4] of 12 ± 4 µg/mL, an IC50 at 72 h (in vitro [7]) of 12 to 27 µg/mL and an IC50 (MH-22A (mouse hepatoma) [5]; 72 h) of 27 ± 6 µg/mL.
With `O=C1CC(c2ccccc2)C(C(=O)OCCCCC(F)(F)C(F)(F)C(F)(F)C(F)(F)C(F)(F)C(F)(F)C(F)(F)C(F)(F)F)=C([P+](c2ccccc2)(c2ccccc2)c2ccccc2)N1.[Br-]` (stereo not drawn) [compound 30, (3-(((5,5,6,6,7,7,8,8,9,9,10,10,11,11,12,12,12-Heptadecafluorododecyl)oxy)carbonyl)-6-oxo-4-phenyl-1,4,5,6-tetrahydropyridin-2-yl)triphenylphosphonium bromide] the IC50 ([1]; HT-1080, Table 2, 72 h exposure) was 9 ± 2 µg/mL, the IC50 (MH-22A (mouse hepatoma) [2]; Table 2, 72 h exposure) was 39 ± 5 µg/mL and the “times less cytotoxic than dihydropyridone 31 in the NIH3T3 cells” value (NIH3T3; from LD50 1779 mg/kg versus 604 mg/kg) was “about 3 times”. For the same compound, the IC50 ([3]; NIH3T3, 24 h, read-out: NIH3T3 IC50 (NR), Table 2, 24 h exposure) was 127 ± 11 µg/mL, the IC50 [4] was 10 ± 2 µg/mL and the IC50 (MH-22A (mouse hepatoma) [5]; Table 2, 72 h exposure) was 30 ± 11 µg/mL.
Work on `CCCCCCCCCCCCCCCCOC(=O)/C=C(\N)C[N+](C)(C)C1CCCCC1` [compound 39, (Z,E)-N-(2-Amino-4-(hexadecyloxy)-4-oxobut-2-en-1-yl)-N,N-dimethylcyclohexanaminium chloride] yielded an IC50 [1, 13] of 0.5 ± 0.1 µg/mL, an IC50 (MH-22A (mouse hepatoma) [2]; Table 3, 72 h exposure) of 0.2 ± 0.06 µg/mL and an LD50 (in vitro [9]) of 97 mg/kg. It also gave an IC50 [3, 14] of 0.7 ± 0.1 µg/mL, an IC50 [4] of 0.35 ± 0.06 µg/mL and an IC50 (MH-22A (mouse hepatoma) [5]; Table 3, 72 h exposure) of 1 ± 0.6 µg/mL.
With `CCCCCCCCCCCCCCCCOC(=O)/C=C(\N)C[N+](C)(C)CCCCCCCCCCCC` [compound 44, (Z,E)-N-(2-Amino-4-(hexadecyloxy)-4-oxobut-2-en-1-yl)-N,N-dimethyldodecan-1-aminium bromide] the IC50 [1, 13] was 3 ± 0.3 µg/mL, the IC50 (MH-22A (mouse hepatoma) [2]; Table 3, 72 h exposure) was 28 ± 6 µg/mL and the “Oxidation potential E^ox” value [8] was 1.24 V. For the same compound, the electrooxidation potential [8] was 1.24 V, the “NIH3T3 LD50” value (NIH3T3; Table 3, calculated from NIH3T3 IC50 by regression formula) was 697 mg/kg and the IC50 ([3]; NIH3T3, read-out: IC50 in NIH3T3 cell lines) was ~30 µg/mL. The “NIH3T3 IC50 (NR)” value ([3]; Table 3, 24 h exposure) was 31 ± 8 µg/mL, the IC50 [4] was 3 ± 0.4 µg/mL and the IC50 (MH-22A (mouse hepatoma) [5]; Table 3, 72 h exposure) was 25 ± 3 µg/mL.
For `CCCCCCCCCCCCCCCCOC(=O)/C=C(\N)C[N+](C)(C)CCCCCCCCCCCC` [compound 45, (Z,E)-N-(2-Amino-4-(hexadecyloxy)-4-oxobut-2-en-1-yl)-N,N-dimethyldodecan-1-aminium chloride], the LD50 (in vitro [9]) was 573 mg/kg, the “IC50 in NIH3T3 cell lines” value [3] was “around 30 μg/ml” and the IC50 [3, 14] was 25 ± 9 µg/mL.
For `CCCCCCCCCCCCOC(=O)/C=C(\N)C[n+]1ccccc1` [compound 47, (Z,E)-1-(2-Amino-4-(dodecyloxy)-4-oxobut-2-en-1-yl)pyridin-1-ium iodide], the LD50 (in vitro [9]) was 403 mg/kg, the IC50 [3, 14] was 14 ± 9 µg/mL and the IC50 [4] was 3 ± 0.4 µg/mL. It also gave an IC50 (MH-22A (mouse hepatoma) [5]; Table 3, 72 h exposure) of 2 ± 0.1 µg/mL.
With `CCCCCCCCCCCC[N+](C)(C)C/C(N)=C/C(=O)OCCCCCCCCCC` [compound 48, (Z,E)-N-(2-Amino-4-(decyloxy)-4-oxobut-2-en-1-yl)-N,N-dimethyldodecan-1-aminium chloride] the LD50 (in vitro [9]) was 485 mg/kg, the IC50 [3, 14] was 17 ± 3 µg/mL and the IC50 [4] was 3 ± 0.4 µg/mL. It also gave an IC50 (MH-22A (mouse hepatoma) [5]; Table 3, 72 h exposure) of 2 ± 0.2 µg/mL.
